Laboratory results from PMC3681751, “Identification of a Novel Antimicrobial Peptide from Human Hepatitis B Virus Core Protein Arginine-Rich Domain (ARD)” (PLoS Pathogens, 2013).
Where two headings read alike, the source gives them in different places. Residues, ends and D or L forms follow the SMILES beside them.

What was measured:
[1] = test system: P. aeruginosa (ATCC 27853); format: cell-based, Pseudomonas aeruginosa
Method: (§1) The antimicrobial activities of HBc ARD peptides were tested using a number of bacterial strains from ATCC, including Pseudomonas aeruginosa Migula strain (ATCC 27853, ampicillin-resistant), Pseudomonas aeruginosa Migula strain (ATCC 9027, ampicillin-resistant), Klebsiella pneumoniae strain (ATCC 17593), Escherichia coli strain (ATCC 25922), Staphylococcus aureus subsp. strain (ATCC 25923, methicillin-resistant), Staphylococcus aureus subsp. strain (ATCC 29213, methicillin-resistant), Staphylococcus aureus subsp. strain (ATCC 19636, methicillinresistant), and Candida albicans strain (ATCC 10231).
(§2) All peptides were purchased from Yao-Hong Biotechnology Inc. (Taipei, Taiwan). Vendors provided data of peptide characterizations, including HPLC and Mass (data not shown). Antimicrobial activity was determined as described with some modifications as detailed below. Bacteria were grown overnight in Mueller–Hinton broth (Difco) at 37°C, and during the mid-logarithmic phase, bacteria were diluted to 10^6 CFU (colony formation unit)/ml in phosphate buffer (10 mM sodium phosphate and 50 mM sodium chloride, pH 7.2). Peptides were serially diluted in the same buffer. Fifty microliter (µl) of bacteria was mixed with fifty µl of peptides at varying concentrations followed by incubation at 37°C for 3 hours without shaking. At the end of incubation, bacteria were placed on Mueller-Hinton broth agar plates, and allowed growth at 37°C overnight for measurement of minimal bactericidal concentration (MBC). […] All peptides were tested in triplicate.

[2] = test system: P. aeruginosa (ATCC 9027); format: cell-based, Pseudomonas aeruginosa
Method: as §1, §2

[3] = test system: E. coli (ATCC 25922); format: cell-based, Escherichia coli
Method: as §1, §2

[4] = test system: tested bacteria and fungi; format: cell-based; settings: summary over the tested bacteria of Table 1
Method: as §1, §2

[5] = test system: K. pneumonia (ATCC 13884); format: cell-based, Klebsiella pneumoniae
[6] = test system: S. aureus (ATCC 19636); format: cell-based, Staphylococcus aureus
Method: as §1, §2

[7] = test system: S. aureus (ATCC 25923); format: cell-based, Staphylococcus aureus
Method: as §1, §2

[8] = test system: S. aureus (ATCC 29213); format: cell-based, Staphylococcus aureus
Method: as §1, §2

[9] = ampicillin-resistant strain, 3 h at 37°C in phosphate buffer pH 7.2, triplicate
[10] = 3 h at 37°C in phosphate buffer pH 7.2, triplicate
[11] = methicillin-resistant strain, 3 h at 37°C in phosphate buffer pH 7.2, triplicate

| Compound | Antimicrobial activity, MBC ([1]; ATCC 27853, 3 h, pH 7.2) | Antimicrobial activity, MBC [1, 9] | Antimicrobial activity, MBC ([2]; ATCC 9027, 3 h, pH 7.2) | Antimicrobial activity, MBC [2, 9] | Antimicrobial activity, MBC [3, 10] | Antimicrobial activity, MBC ([3]; ATCC 25922, 3 h, pH 7.2) | MBC for bacteria [4] | Antimicrobial activity, MBC [5, 10] | Antimicrobial activity, MBC ([5]; ATCC 13884, 3 h, pH 7.2) | Antimicrobial activity, MBC ([6]; ATCC 19636, 3 h, pH 7.2) | Antimicrobial activity, MBC [6, 11] | Antimicrobial activity, MBC ([7]; ATCC 25923, 3 h, pH 7.2) | Antimicrobial activity, MBC [7, 11] | Antimicrobial activity, MBC ([8]; ATCC 29213, 3 h, pH 7.2) | Antimicrobial activity, MBC [8, 11] |
| --- | --- | --- | --- | --- | --- | --- | --- | --- | --- | --- | --- | --- | --- | --- | --- |
| CC(C)[C@H](NC(=O)[C@@H](NC(=O)[C@@H](N)[C@@H](C)O)C(C)C)C(=O)N[C@@H](CCCNC(=N)N)C(=O)N[C@@H](CCCNC(=N)N)C(=O)N[C@@H](CCCNC(=N)N)C(=O)NCC(=O)N[C@@H](CCCNC(=N)N)C(=O)N[C@@H](CO)C(=O)N1CCC[C@H]1C(=O)N[C@@H](CCCNC(=N)N)C(=O)N[C@@H](CCCNC(=N)N)C(=O)N[C@@H](CCCNC(=N)N)C(=O)N[C@H](C(=O)N1CCC[C@H]1C(=O)N[C@@H](CO)C(=O)N1CCC[C@H]1C(=O)N[C@@H](CCCNC(=N)N)C(=O)N[C@@H](C)C(=O)N[C@@H](C)C(=O)N[C@@H](CCCNC(=N)N)C(=O)N[C@@H](CO)C(=O)N[C@@H](CCC(N)=O)C(=O)N[C@@H](CO)C(=O)N1CCC[C@H]1C(=O)N[C@@H](CCCNC(=N)N)C(=O)N[C@@H](C)C(=O)N[C@@H](C)C(=O)N[C@@H](CCCNC(=N)N)C(=O)N[C@@H](CO)C(=O)N[C@@H](CCC(N)=O)C(=O)N[C@@H](CO)C(=O)N[C@@H](CCCNC(=N)N)C(=O)N[C@@H](CCC(=O)O)C(=O)N[C@@H](CO)C(=O)N[C@@H](CCC(N)=O)C(=O)N[C@@H](CS)C(=O)O)[C@@H](C)O [HBc147-183(34AA)] (H-TVVRRRGRSPRRRTPSPRAARSQSPRAARSQSRESQC-OH; N-terminus and C-terminus assumed) | 32 µM | 135.94 µg/mL | 32 µM | 135.94 µg/mL | > 135.94 µg/mL | > 32 µM | significantly increased | 135.94 µg/mL | 32 µM | > 32 µM | > 135.94 µg/mL | > 32 µM | > 135.94 µg/mL | > 32 µM | > 135.94 µg/mL |
| CC(C)[C@H](NC(=O)[C@@H](NC(=O)[C@@H](N)[C@@H](C)O)C(C)C)C(=O)N[C@@H](CCCNC(=N)N)C(=O)N[C@@H](CCCNC(=N)N)C(=O)N[C@@H](CCCNC(=N)N)C(=O)NCC(=O)N[C@@H](CCCNC(=N)N)C(=O)N[C@@H](COP(=O)(O)O)C(=O)N1CCC[C@H]1C(=O)N[C@@H](CCCNC(=N)N)C(=O)N[C@@H](CCCNC(=N)N)C(=O)N[C@@H](CCCNC(=N)N)C(=O)N[C@H](C(=O)N1CCC[C@H]1C(=O)N[C@@H](COP(=O)(O)O)C(=O)N1CCC[C@H]1C(=O)N[C@@H](CCCNC(=N)N)C(=O)N[C@@H](CCCNC(=N)N)C(=O)N[C@@H](CCCNC(=N)N)C(=O)N[C@@H](CCCNC(=N)N)C(=O)N[C@@H](CO)C(=O)N[C@@H](CCC(N)=O)C(=O)N[C@@H](COP(=O)(O)O)C(=O)N1CCC[C@H]1C(=O)N[C@@H](CCCNC(=N)N)C(=O)N[C@@H](CCCNC(=N)N)C(=O)N[C@@H](CCCNC(=N)N)C(=O)N[C@@H](CCCNC(=N)N)C(=O)N[C@@H](CO)C(=O)N[C@@H](CCC(N)=O)C(=O)N[C@@H](CO)C(=O)N[C@@H](CCCNC(=N)N)C(=O)N[C@@H](CCC(=O)O)C(=O)N[C@@H](CO)C(=O)N[C@@H](CCC(N)=O)C(=O)N[C@@H](CS)C(=O)O)[C@@H](C)O [HBc155p162p170p] | > 32 µM | > 154.5 µg/mL | > 32 µM | > 154.5 µg/mL | > 154.5 µg/mL | > 32 µM | > 32 µM | > 154.5 µg/mL | > 32 µM | > 32 µM | > 154.5 µg/mL | > 32 µM | > 154.5 µg/mL | > 32 µM | > 154.5 µg/mL |
